This note sets out measurements from ChEMBL document CHEMBL1145877, “5H-8,9-dimethoxy-5-(2-N,N-dimethylaminoethyl)dibenzo[c,h][1,6]naphthyridin-6-ones and related compounds as TOP1-targeting agents: influence of structure on the ternary cleavable complex formation” (Bioorg Med Chem Lett, 2003).

The target of this assay is T1, DNA topoisomerase 1 (Homo sapiens) (UniProt P11387).
T1 sequence (whole entry): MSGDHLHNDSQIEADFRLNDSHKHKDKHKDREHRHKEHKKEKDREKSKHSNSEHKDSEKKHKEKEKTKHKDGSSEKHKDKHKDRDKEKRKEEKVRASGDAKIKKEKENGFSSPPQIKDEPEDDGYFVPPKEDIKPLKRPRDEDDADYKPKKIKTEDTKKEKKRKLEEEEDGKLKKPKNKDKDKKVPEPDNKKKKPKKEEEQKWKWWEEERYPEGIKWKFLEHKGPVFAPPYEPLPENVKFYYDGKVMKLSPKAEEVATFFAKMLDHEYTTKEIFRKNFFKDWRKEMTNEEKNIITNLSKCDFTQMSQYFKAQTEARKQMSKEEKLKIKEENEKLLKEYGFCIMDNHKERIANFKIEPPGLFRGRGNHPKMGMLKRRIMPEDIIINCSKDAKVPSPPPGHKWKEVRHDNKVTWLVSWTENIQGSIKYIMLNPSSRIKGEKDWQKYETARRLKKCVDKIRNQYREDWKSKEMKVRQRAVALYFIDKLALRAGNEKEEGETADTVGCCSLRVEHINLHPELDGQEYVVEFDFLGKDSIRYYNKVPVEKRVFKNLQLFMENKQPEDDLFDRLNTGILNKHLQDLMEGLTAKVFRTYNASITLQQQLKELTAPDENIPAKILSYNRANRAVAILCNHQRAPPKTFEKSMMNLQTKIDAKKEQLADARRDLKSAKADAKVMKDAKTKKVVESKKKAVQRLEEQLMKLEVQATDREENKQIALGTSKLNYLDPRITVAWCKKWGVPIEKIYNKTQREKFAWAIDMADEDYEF
The assay is described as follows: Concentration relative to topotecan for topoisomerase DNA topoisomerase I cleavage.

The structures appear in SMILES notation.

Molecule `COc1cc2c(=O)n(CCN(C)C)c3c(cnc4cccc([N+](=O)[O-])c43)c2cc1OC` had an REC of 300.

Consider `COc1cc2c(cc1OC)-c1cnc3cc4c(cc3c1N(CCN(C)C)C2)OCO4`, for which the REC came to 0.8.

Take `COc1cc2c(=O)n(CCN(C)C)c3c4ccc([N+](=O)[O-])cc4ncc3c2cc1OC`: the REC is 6.

For the molecule `COc1cc2c(=O)n(CCN(C)C)c3c4cccc([N+](=O)[O-])c4ncc3c2cc1OC`, the REC is 9.

As to `COc1cc2c(=O)n(CCCN(C)C)c3c4cc5c(cc4ncc3c2cc1OC)OCO5`, the REC stood at 1.

In turn, `COc1cc2c(=O)n(CCN(C)C)c3c4cc([N+](=O)[O-])ccc4ncc3c2cc1OC` had an REC of 2.

`COc1cc2c(=O)n(CCN(C)C)c3c4cc5c(cc4nnc3c2cc1OC)OCO5` came in with an REC of 0.3.
